Data: US12371428B2 (Exelixis, Inc., priority 2019, dated 2025)

What was measured:
[1] = biological target: Human KDR (residues 790-1356) (Homo sapiens (Human), UniProt P35968); test: Human KDR kinase assay, HTRF KinEase (Example B-2); type: biochemical; conditions: protocol of Example B-2 (other compounds)
Summary of the method: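 Human KDR residues 790-1356 (0.1 ng/well) in buffer with 5 mM MgCl2, 1 mM MnCl2, 1 mM DTT, biotinylated peptide substrate, ATP at Km (4.0 μM), 3% DMSO, 10 compound concentrations; 40 min, room temperature. EDTA stop, streptavidin-XL665/Eu-TK antibody HTRF read 665/620 nm; 4-parameter IC50.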

[2] = biological target: Human MER (residues 528-999) (Homo sapiens (Human), UniProt Q12866); test: Human Mer kinase assay, HTRF KinEase (Example C-2); type: biochemical; conditions: protocol of Example C-2 (other compounds)
Summary of the method: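 HTRF KinEase TK assay with MER 528-999 (1 ng/well) in enzymatic buffer plus 5 mM MgCl2 and 1 mM DTT, biotinylated peptide substrate and ATP at Km (40 μM), 3% DMSO final, 60 min at room temperature. Stopped with EDTA detection mix (SA-XL665, TK antibody-Eu3+), read at 665/620 nm after 60 min; IC50 from 10-point 4-parameter fit, normalized to DMSO and 1 μM reference.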

[3] = biological target: Met (phospho-Met, HGF-stimulated PC-3 prostate cancer cells) (Homo sapiens (Human), UniProt P08581); test: Met autophosphorylation ELISA in PC-3 cells (Example F); type: cell-based; conditions: cellular activity; Met autophosphorylation ELISA in PC-3 cells; read-out: c-Met IC50
Summary of the method: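 PC-3 cells, serum-starved 3 h, were treated with compounds (8-point dose curve, 0.3% DMSO final) for 1 h, then stimulated with 100 ng/mL recombinant human HGF for 10 min. Lysate phospho-Met (panTyr) was quantified by sandwich ELISA; IC50 from 4-parameter logistic fit.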

[4] = biological target: KDR (phospho-KDR, VEGF165-stimulated HUVEC cells) (Homo sapiens (Human), UniProt P35968); test: KDR autophosphorylation ELISA in HUVEC cells (Example G); type: cell-based; conditions: cellular activity; KDR autophosphorylation ELISA in HUVEC cells
Summary of the method: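 Cells seeded, grown 24 h at 37 °C, starved 24 h serum-free; cpd 8-pt curve, 0.3% DMSO, 1 h; VEGF165 100 ng/mL, 5 min; cold PBS wash, lysis with orthovanadate and protease/phosphatase inhibitors; pKDR ELISA; IC50 by 4-parameter logistic regression.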

Sequence of KDR (phospho-KDR, VEGF165-stimulated HUVEC cells) (P35968 20-1356): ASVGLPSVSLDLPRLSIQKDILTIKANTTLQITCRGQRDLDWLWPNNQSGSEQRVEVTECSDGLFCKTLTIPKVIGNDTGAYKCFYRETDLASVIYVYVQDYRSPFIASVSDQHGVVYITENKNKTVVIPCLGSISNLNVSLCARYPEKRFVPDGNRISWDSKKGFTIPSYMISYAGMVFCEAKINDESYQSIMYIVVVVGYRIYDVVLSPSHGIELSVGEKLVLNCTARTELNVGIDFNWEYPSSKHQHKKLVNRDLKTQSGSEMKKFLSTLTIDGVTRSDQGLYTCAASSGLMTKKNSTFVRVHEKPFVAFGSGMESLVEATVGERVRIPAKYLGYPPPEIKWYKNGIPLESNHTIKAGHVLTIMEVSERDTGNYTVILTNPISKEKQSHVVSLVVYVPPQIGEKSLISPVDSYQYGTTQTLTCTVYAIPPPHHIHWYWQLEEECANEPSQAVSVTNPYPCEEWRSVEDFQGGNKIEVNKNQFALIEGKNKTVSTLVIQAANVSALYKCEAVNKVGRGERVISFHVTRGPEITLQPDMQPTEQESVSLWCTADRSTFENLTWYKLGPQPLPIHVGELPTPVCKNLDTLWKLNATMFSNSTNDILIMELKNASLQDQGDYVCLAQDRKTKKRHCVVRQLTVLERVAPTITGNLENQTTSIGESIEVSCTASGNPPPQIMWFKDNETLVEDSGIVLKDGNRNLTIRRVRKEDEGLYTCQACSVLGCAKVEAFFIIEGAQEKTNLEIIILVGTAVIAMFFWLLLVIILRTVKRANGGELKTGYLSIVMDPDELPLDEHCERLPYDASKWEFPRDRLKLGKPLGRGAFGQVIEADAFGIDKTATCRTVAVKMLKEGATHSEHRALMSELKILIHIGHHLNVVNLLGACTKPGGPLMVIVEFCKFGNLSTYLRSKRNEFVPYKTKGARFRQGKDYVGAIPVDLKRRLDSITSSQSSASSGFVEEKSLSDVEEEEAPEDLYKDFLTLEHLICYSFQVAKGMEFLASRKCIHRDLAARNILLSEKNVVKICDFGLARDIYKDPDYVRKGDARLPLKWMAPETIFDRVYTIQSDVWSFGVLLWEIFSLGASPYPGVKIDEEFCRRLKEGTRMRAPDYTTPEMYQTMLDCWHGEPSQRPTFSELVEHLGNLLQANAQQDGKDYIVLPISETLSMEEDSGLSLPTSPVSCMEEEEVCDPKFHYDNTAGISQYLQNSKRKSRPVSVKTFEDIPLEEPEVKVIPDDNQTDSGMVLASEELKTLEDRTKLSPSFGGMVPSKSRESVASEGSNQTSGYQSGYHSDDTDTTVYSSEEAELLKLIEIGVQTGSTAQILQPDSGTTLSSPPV
Sequence of Met (phospho-Met, HGF-stimulated PC-3 prostate cancer cells) (P08581 25-1390): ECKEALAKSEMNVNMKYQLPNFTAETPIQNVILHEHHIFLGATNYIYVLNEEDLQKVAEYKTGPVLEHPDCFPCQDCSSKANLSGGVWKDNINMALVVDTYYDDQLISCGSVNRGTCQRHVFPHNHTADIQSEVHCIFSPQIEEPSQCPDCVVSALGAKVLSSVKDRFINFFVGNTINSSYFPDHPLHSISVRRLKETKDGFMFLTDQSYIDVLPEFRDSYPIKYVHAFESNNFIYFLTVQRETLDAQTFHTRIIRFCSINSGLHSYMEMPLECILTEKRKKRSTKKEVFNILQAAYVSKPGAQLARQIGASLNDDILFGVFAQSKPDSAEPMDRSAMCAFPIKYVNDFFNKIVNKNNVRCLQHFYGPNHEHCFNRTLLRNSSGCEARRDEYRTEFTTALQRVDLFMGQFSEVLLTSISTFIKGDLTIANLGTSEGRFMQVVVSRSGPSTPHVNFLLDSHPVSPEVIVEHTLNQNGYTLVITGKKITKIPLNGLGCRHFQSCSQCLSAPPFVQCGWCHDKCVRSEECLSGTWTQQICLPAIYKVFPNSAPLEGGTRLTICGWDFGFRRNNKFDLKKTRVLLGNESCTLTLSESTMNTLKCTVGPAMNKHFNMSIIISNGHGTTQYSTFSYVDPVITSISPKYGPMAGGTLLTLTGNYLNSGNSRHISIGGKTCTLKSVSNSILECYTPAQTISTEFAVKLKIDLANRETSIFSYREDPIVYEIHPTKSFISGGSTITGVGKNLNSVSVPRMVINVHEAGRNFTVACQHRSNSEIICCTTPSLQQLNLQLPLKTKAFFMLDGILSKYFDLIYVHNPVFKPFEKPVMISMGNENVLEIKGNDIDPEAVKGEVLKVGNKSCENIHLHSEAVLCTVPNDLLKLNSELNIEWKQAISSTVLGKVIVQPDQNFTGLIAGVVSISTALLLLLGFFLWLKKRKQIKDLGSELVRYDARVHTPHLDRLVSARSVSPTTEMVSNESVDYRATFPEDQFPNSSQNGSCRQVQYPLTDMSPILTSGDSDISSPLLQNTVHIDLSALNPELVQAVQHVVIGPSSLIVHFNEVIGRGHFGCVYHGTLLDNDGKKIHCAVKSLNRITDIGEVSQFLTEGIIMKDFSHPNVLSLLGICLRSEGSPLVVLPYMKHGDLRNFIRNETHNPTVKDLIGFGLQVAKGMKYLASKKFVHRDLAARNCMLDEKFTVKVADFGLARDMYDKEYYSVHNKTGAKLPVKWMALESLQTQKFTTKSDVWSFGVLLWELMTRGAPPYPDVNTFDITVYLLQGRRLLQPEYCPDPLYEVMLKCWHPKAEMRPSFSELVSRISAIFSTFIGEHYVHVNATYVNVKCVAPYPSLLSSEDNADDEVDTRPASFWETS
Sequence of Human MER (residues 528-999) (Q12866 528-999): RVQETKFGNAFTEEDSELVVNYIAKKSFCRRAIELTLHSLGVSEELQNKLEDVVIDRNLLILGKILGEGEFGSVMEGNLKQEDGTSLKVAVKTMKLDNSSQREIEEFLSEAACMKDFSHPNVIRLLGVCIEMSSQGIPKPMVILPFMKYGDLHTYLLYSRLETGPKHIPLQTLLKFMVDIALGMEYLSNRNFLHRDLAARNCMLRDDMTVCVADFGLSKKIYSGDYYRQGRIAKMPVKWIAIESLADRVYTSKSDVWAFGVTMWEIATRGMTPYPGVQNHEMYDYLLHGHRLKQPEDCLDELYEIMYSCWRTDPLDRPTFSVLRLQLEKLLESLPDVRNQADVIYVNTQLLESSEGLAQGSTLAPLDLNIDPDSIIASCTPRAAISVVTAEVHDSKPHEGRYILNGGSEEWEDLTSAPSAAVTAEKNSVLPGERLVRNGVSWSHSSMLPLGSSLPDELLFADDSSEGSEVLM
Sequence of Human KDR (residues 790-1356) (P35968 790-1356): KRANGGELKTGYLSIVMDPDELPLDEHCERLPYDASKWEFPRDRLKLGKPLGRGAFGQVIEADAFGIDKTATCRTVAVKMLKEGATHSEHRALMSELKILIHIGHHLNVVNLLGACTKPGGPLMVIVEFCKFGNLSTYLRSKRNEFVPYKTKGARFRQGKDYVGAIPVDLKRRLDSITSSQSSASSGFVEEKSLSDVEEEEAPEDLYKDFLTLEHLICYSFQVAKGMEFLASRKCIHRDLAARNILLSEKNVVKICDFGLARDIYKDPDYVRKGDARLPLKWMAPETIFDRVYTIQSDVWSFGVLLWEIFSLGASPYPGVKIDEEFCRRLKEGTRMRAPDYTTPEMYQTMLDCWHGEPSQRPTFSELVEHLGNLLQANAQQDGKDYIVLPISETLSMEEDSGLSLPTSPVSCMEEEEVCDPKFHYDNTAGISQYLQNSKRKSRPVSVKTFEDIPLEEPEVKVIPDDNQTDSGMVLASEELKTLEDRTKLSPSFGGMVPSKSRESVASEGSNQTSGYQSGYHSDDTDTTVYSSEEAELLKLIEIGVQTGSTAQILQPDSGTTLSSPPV

Q: Which results are given for CNc1c(-c2ccc(F)cc2)c(=O)c(C(=O)Nc2ccc(Oc3ccnc4cc(OC)c(OC)nc34)c(F)c2)cn1C [Compound 76, N-[4-[(6,7-Dimethoxy-1,5-naphthyridin-4-yl)oxy]-3-fluorophenyl]-5-(4-fluorophenyl)-1-methyl-6-(methylamino)-4-oxopyridine-3-carboxamide]?
A: IC50 [1]: < 100 nM; IC50 [2]: < 100 nM; IC50 [3]: < 100 nM; IC50 [4]: < 100 nM

Q: Which IC50 [1] does the source give for COc1cc2nccc(Oc3ccc(NC(=O)c4c5n(cc(-c6ccc(F)cc6)c4=O)CCC5)cc3F)c2cc1OC [Compound 409, N-[4-(6,7-dimethoxyquinolin-4-yl)oxy-3-fluorophenyl]-6-(4-fluorophenyl)-7-oxo-2,3-dihydro-1H-indolizine-8-carboxamide] here?
A: < 100 nM

Q: What about the IC50 [2] of the same compound?
A: < 100 nM

Q: What about the IC50 [3] of the same compound?
A: < 100 nM

Q: And the IC50 [4]?
A: < 100 nM

Q: COc1cc2nccc(Oc3ccc(NC(=O)c4cn(C5CC5)c(C)c(-c5ccc(F)cc5C)c4=O)cc3)c2nc1OC [Compound 440, 1-cyclopropyl-N-[4-[(6,7-dimethoxy-1,5-naphthyridin-4-yl)oxy]phenyl]-5-(4-fluoro-2-methylphenyl)-6-methyl-4-oxopyridine-3-carboxamide] was tested. Which IC50 [1] did it give?
A: > 300 nM

Q: And the IC50 [2]?
A: < 100 nM

Q: And the IC50 [3]?
A: < 100 nM

Q: What about the IC50 [4] of the same compound?
A: > 300 nM

Q: With COc1cc2nccc(Oc3ccc(NC(=O)c4cnc(C)c(-c5ccc(F)cc5C)c4O)cc3F)c2nc1OC(C)C [Compound 416, N-[3-fluoro-4-[(7-methoxy-6-propan-2-yloxy-1,5-naphthyridin-4-yl)oxy]phenyl]-5-(4-fluoro-2-methylphenyl)-4-hydroxy-6-methylpyridine-3-carboxamide] as the compound, how does the IC50 [1] read?
A: > 300 nM

Q: What about the IC50 [2] of the same compound?
A: < 100 nM

Q: What about the IC50 [3] of the same compound?
A: < 100 nM

Q: And the IC50 [4]?
A: < 100 nM

Q: With CCn1cc(-c2ccc(F)cc2)c(=O)c(C(=O)Nc2ccc(Oc3ccnc4cc(OC)c(OC)nc34)c(F)c2)c1C [Compound 82, N-[4-[(6,7-Dimethoxy-1,5-naphthyridin-4-yl)oxy]-3-fluorophenyl]-1-ethyl-5-(4-fluorophenyl)-2-methyl-4-oxopyridine-3-carboxamide] as the compound, how does the IC50 [1] read?
A: 100 to 300 nM

Q: And the IC50 [2]?
A: < 100 nM

Q: And the IC50 [3]?
A: < 100 nM

Q: What about the IC50 [4] of the same compound?
A: 100 to 300 nM

Q: Which IC50 [1] does the source give for COc1cnc2c(Oc3ccc(NC(=O)c4c(C)ncc(-c5ccc(F)cc5)c4O)cc3F)ccnc2c1 [Compound 80, N-[3-Fluoro-4-[(7-methoxy-1,5-naphthyridin-4-yl)oxy]phenyl]-5-(4-fluorophenyl)-4-hydroxy-2-methylpyridine-3-carboxamide] here?
A: < 100 nM

Q: And the IC50 [2]?
A: < 100 nM

Q: What about the IC50 [3] of the same compound?
A: < 100 nM

Q: And the IC50 [4]?
A: < 100 nM

Q: What does the source list for COc1cc2nccc(Oc3ccc(NC(=O)c4ncnc(-c5ccc(F)cc5)c4O)cc3F)c2nc1OC [Compound 96, N-[4-[(6,7-Dimethoxy-1,5-naphthyridin-4-yl)oxy]-3-fluorophenyl]-6-(4-fluorophenyl)-5-hydroxypyrimidine-4-carboxamide]?
A: IC50 [1]: < 100 nM; IC50 [2]: < 100 nM; IC50 [3]: < 100 nM; IC50 [4]: < 100 nM

Q: Which IC50 [1] does the source give for CCc1cnc2c(Oc3ccc(NC(=O)c4cnc(C)c(-c5ccc(F)cc5C)c4O)cc3F)ccnc2c1 [Compound 419, N-[4-[(7-ethyl-1,5-naphthyridin-4-yl)oxy]-3-fluorophenyl]-5-(4-fluoro-2-methylphenyl)-4-hydroxy-6-methylpyridine-3-carboxamide] here?
A: > 300 nM

Q: What about the IC50 [2] of the same compound?
A: < 100 nM

Q: What about the IC50 [3] of the same compound?
A: < 100 nM

Q: And the IC50 [4]?
A: < 100 nM

Q: What does the source list for COc1cc2nccc(Oc3ccc(NC(=O)c4cn(-c5cc[nH]n5)cc(-c5ccc(F)cc5)c4=O)cc3F)c2nc1OC [Compound 61, N-[4-[(6,7-Dimethoxy-1,5-naphthyridin-4-yl)oxy]-3-fluorophenyl]-5-(4-fluorophenyl)-4-oxo-1-(1H-pyrazol-3-yl)pyridine-3-carboxamide]?
A: IC50 [1]: > 300 nM; IC50 [2]: < 100 nM; IC50 [3]: < 100 nM; IC50 [4]: > 300 nM

Q: With COCCOc1nc2c(Oc3ccc(NC(=O)c4cnc(C)c(-c5ccc(F)cc5)c4O)cc3)ccnc2cc1C [Compound 437, 5-(4-fluorophenyl)-4-hydroxy-N-[4-[[6-(2-methoxyethoxy)-7-methyl-1,5-naphthyridin-4-yl]oxy]phenyl]-6-methylpyridine-3-carboxamide] as the compound, how does the IC50 [1] read?
A: < 100 nM

Q: And the IC50 [2]?
A: < 100 nM

Q: What about the IC50 [3] of the same compound?
A: < 100 nM

Q: And the IC50 [4]?
A: < 100 nM

Q: Which IC50 [1] does the source give for COc1cc2nccc(Oc3ccc(NC(=O)c4cn(C)c(C)c(-c5ccc(F)cc5)c4=O)cc3F)c2nc1OC [Compound 58, N-[4-[(6,7-Dimethoxy-1,5-naphthyridin-4-yl)oxy]-3-fluorophenyl]-5-(4-fluorophenyl)-1,6-dimethyl-4-oxopyridine-3-carboxamide] here?
A: < 100 nM

Q: And the IC50 [2]?
A: < 100 nM

Q: What about the IC50 [3] of the same compound?
A: < 100 nM

Q: What about the IC50 [4] of the same compound?
A: < 100 nM

Q: Which IC50 [1] does the source give for CCn1cc(C(=O)Nc2ccc(Oc3ccnc4cc(OC)c(OC)nc34)c(F)c2)c(=O)c(-c2ccc(F)cc2)c1C [Compound 63, N-[4-[(6,7-Dimethoxy-1,5-naphthyridin-4-yl)oxy]-3-fluorophenyl]-1-ethyl-5-(4-fluorophenyl)-6-methyl-4-oxopyridine-3-carboxamide] here?
A: < 100 nM

Q: And the IC50 [2]?
A: < 100 nM

Q: And the IC50 [3]?
A: < 100 nM

Q: What about the IC50 [4] of the same compound?
A: < 100 nM

Q: What does the source list for CCn1cc(C(=O)Nc2ccc(Oc3ccnc4cc(O)cnc34)c(F)c2)c(=O)c(-c2ccc(F)cc2)c1C [Compound 410, 1-ethyl-N-[3-fluoro-4-[(7-hydroxy-1,5-naphthyridin-4-yl)oxy]phenyl]-5-(4-fluorophenyl)-6-methyl-4-oxopyridine-3-carboxamide]?
A: IC50 [1]: > 300 nM; IC50 [2]: < 100 nM; IC50 [3]: 100 to 300 nM; IC50 [4]: > 300 nM

Q: How did the IC50 [1] turn out when COc1cnc2c(Oc3ccc(NC(=O)c4cn(C)c(Cl)c(-c5ccc(F)cc5)c4=O)cc3F)ccnc2c1 [Compound 411, 6-chloro-N-[3-fluoro-4-[(7-methoxy-1,5-naphthyridin-4-yl)oxy]phenyl]-5-(4-fluorophenyl)-1-methyl-4-oxopyridine-3-carboxamide] was run?
A: > 300 nM

Q: What about the IC50 [2] of the same compound?
A: < 100 nM

Q: And the IC50 [3]?
A: < 100 nM

Q: What about the IC50 [4] of the same compound?
A: > 300 nM

Q: What does the source list for COc1cc2nccc(Oc3ccc(NC(=O)c4nn(C)c(C)c(-c5ccc(F)cc5)c4=O)cc3)c2nc1OC [Compound 91, N-[4-[(6,7-Dimethoxy-1,5-naphthyridin-4-yl)oxy]phenyl]-5-(4-fluorophenyl)-1,6-dimethyl-4-oxopyridazine-3-carboxamide]?
A: IC50 [1]: 100 to 300 nM; IC50 [2]: < 100 nM; IC50 [3]: < 100 nM; IC50 [4]: 100 to 300 nM

Q: Which IC50 [1] does the source give for COc1ccc2nccc(Oc3ccc(NC(=O)c4cn(C5CC5)c(C)c(-c5ccc(F)cc5C)c4=O)cc3F)c2n1 [Compound 441, 1-cyclopropyl-N-[3-fluoro-4-[(6-methoxy-1,5-naphthyridin-4-yl)oxy]phenyl]-5-(4-fluoro-2-methylphenyl)-6-methyl-4-oxopyridine-3-carboxamide] here?
A: > 300 nM

Q: What about the IC50 [2] of the same compound?
A: < 100 nM

Q: And the IC50 [3]?
A: < 100 nM

Q: And the IC50 [4]?
A: > 300 nM

Q: For COc1cc2nccc(Oc3ccc(NC(=O)c4cn(C)c(Cl)c(-c5ccc(F)cc5)c4=O)cc3F)c2nc1OC [Compound 412, 6-chloro-N-[4-[(6,7-dimethoxy-1,5-naphthyridin-4-yl)oxy]-3-fluorophenyl]-5-(4-fluorophenyl)-1-methyl-4-oxopyridine-3-carboxamide], which IC50 [1] is on record?
A: < 100 nM

Q: What about the IC50 [2] of the same compound?
A: < 100 nM

Q: What about the IC50 [3] of the same compound?
A: < 100 nM

Q: And the IC50 [4]?
A: < 100 nM

Q: With COc1cc2nccc(Oc3ccc(NC(=O)c4cc(C(C)=O)c(C)n(-c5ccc(F)cc5)c4=O)cc3F)c2nc1OC [Compound 86, 5-Acetyl-N-[4-[(6,7-dimethoxy-1,5-naphthyridin-4-yl)oxy]-3-fluorophenyl]-1-(4-fluorophenyl)-6-methyl-2-oxopyridine-3-carboxamide] as the compound, how does the IC50 [1] read?
A: > 300 nM

Q: What about the IC50 [2] of the same compound?
A: < 100 nM

Q: And the IC50 [3]?
A: < 100 nM

Q: And the IC50 [4]?
A: 100 to 300 nM

Q: Which IC50 [1] does the source give for COc1nc2c(Oc3ccc(NC(=O)c4c(C)nc(C)c(-c5ccc(F)cc5)c4O)cc3F)ccnc2cc1O [Compound 431, N-[3-fluoro-4-[(7-hydroxy-6-methoxy-1,5-naphthyridin-4-yl)oxy]phenyl]-5-(4-fluorophenyl)-4-hydroxy-2,6-dimethylpyridine-3-carboxamide] here?
A: < 100 nM

Q: What about the IC50 [2] of the same compound?
A: < 100 nM

Q: What about the IC50 [3] of the same compound?
A: < 100 nM

Q: And the IC50 [4]?
A: < 100 nM

Q: What does the source list for COc1cc2nccc(Oc3ccc(NC(=O)c4cnc(C)c(-c5ccc(F)cc5C)c4O)cc3F)c2nc1OCCCN1CCOCC1 [Compound 425, N-[3-fluoro-4-[[7-methoxy-6-(3-morpholin-4-ylpropoxy)-1,5-naphthyridin-4-yl]oxy]phenyl]-5-(4-fluoro-2-methylphenyl)-4-hydroxy-6-methylpyridine-3-carboxamide]?
A: IC50 [1]: < 100 nM; IC50 [2]: < 100 nM; IC50 [3]: < 100 nM; IC50 [4]: < 100 nM
